Assay results taken from patent publication US11208412B2 (DAEGU-GYEONGBUK MEDICAL INNOVATION FOUNDATION, priority 2017, dated 2021).

Legend:
Test in all cases: Kinase selectivity, DiscoverX scanMAX Kinase assay panel (% control)
Assay type in all cases: binding
[1] = biological target: T1, kinases of the scanMAX Kinase assay panel (Homo sapiens, UniProt O00506); conditions: kinase YSK1; 1 uM in DMSO
T1 construct: purchased DiscoverX Co. (contract measurement) scanMAX Kinase assay panel
In short: (§1)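 Percent of control computed as (compound − positive control)/(negative control − positive control) × 100, DMSO defining 100% and positive control 0%. Each panel kinase exposed to 1 uM compound; values under 35% taken to mean the compound acts on that kinase.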

[2] = biological target: T2, kinases of the scanMAX Kinase assay panel (Homo sapiens, UniProt P29323); conditions: EPHB2; 1 uM
T2 construct: purchased DiscoverX Co. (contract measurement) scanMAX Kinase assay panel
T2 sequence (P29323 19-1055): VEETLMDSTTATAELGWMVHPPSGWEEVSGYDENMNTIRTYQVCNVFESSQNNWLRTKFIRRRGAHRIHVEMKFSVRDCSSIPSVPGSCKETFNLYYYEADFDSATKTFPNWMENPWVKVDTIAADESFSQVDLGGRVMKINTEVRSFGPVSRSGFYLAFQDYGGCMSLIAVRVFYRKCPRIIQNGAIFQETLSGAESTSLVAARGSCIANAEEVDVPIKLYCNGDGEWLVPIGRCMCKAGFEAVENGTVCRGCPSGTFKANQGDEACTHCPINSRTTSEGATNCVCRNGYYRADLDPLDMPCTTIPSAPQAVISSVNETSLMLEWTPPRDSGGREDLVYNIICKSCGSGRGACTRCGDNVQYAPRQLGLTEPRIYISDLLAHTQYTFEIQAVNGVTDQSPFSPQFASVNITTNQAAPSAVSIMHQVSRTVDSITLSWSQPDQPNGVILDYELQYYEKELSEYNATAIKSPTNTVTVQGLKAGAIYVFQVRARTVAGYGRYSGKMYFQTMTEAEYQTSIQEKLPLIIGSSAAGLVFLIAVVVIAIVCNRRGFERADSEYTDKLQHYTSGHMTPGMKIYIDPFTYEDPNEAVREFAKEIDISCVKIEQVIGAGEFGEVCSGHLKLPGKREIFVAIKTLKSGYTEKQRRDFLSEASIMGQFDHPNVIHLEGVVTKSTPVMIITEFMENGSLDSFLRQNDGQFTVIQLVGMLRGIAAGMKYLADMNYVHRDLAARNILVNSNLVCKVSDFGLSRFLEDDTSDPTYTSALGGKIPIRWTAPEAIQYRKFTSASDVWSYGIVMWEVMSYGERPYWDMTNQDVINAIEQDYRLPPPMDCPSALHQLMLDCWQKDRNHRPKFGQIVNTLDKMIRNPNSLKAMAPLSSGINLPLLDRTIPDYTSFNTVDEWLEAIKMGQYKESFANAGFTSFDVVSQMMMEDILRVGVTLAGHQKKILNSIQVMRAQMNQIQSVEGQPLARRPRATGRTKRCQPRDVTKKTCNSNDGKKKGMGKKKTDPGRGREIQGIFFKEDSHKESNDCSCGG
In short: as §1

[3] = biological target: T3, kinases of the scanMAX Kinase assay panel (Homo sapiens, UniProt P48729); conditions: CSNK1A1; 1 uM
T3 construct: purchased DiscoverX Co. (contract measurement) scanMAX Kinase assay panel
In short: as §1

[4] = biological target: T4, kinases of the scanMAX Kinase assay panel (Homo sapiens, UniProt Q02156); conditions: PRKCE; 1 uM
T4 construct: purchased DiscoverX Co. (contract measurement) scanMAX Kinase assay panel
T4 sequence (Q02156 1-737): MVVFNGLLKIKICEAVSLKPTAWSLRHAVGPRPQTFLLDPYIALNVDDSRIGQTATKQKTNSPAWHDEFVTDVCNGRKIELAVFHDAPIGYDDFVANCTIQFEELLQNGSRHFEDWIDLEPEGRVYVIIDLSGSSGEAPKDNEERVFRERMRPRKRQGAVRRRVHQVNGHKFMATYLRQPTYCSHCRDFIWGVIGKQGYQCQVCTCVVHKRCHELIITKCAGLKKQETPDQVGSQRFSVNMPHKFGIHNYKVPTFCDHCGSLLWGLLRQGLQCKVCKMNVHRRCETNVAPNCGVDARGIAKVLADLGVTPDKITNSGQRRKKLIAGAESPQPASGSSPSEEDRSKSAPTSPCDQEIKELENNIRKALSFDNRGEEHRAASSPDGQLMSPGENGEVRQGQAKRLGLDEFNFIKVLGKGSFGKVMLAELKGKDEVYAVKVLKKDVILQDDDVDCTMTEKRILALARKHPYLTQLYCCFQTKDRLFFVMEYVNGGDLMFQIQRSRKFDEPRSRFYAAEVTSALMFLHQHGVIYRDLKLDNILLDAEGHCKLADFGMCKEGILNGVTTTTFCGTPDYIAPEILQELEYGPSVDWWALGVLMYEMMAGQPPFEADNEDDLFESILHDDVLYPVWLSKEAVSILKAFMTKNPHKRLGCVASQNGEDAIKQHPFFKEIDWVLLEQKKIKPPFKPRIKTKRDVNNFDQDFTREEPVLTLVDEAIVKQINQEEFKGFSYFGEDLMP
In short: as §1

[5] = biological target: T5, kinases of the scanMAX Kinase assay panel (Homo sapiens, UniProt Q2M2I8); conditions: AAK1; 1 uM
T5 construct: purchased DiscoverX Co. (contract measurement) scanMAX Kinase assay panel
In short: as §1

[6] = biological target: T6, kinases of the scanMAX Kinase assay panel (Homo sapiens, UniProt Q9UEE5); conditions: DRAK1; 1 uM
T6 construct: purchased DiscoverX Co. (contract measurement) scanMAX Kinase assay panel
T6 sequence (Q9UEE5 1-414): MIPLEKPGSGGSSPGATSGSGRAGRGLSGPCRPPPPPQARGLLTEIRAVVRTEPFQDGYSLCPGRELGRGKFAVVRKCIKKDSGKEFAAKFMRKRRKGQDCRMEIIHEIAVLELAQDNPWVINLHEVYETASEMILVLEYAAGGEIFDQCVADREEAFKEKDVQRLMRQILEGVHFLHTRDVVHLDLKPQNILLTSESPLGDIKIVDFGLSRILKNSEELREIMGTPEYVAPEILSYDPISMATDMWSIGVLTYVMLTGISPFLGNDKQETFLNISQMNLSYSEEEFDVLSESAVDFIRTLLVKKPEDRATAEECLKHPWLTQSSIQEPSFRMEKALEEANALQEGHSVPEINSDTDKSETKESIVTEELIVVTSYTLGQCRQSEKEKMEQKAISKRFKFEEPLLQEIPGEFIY
In short: as §1

T5 sequence (Q2M2I8 whole entry): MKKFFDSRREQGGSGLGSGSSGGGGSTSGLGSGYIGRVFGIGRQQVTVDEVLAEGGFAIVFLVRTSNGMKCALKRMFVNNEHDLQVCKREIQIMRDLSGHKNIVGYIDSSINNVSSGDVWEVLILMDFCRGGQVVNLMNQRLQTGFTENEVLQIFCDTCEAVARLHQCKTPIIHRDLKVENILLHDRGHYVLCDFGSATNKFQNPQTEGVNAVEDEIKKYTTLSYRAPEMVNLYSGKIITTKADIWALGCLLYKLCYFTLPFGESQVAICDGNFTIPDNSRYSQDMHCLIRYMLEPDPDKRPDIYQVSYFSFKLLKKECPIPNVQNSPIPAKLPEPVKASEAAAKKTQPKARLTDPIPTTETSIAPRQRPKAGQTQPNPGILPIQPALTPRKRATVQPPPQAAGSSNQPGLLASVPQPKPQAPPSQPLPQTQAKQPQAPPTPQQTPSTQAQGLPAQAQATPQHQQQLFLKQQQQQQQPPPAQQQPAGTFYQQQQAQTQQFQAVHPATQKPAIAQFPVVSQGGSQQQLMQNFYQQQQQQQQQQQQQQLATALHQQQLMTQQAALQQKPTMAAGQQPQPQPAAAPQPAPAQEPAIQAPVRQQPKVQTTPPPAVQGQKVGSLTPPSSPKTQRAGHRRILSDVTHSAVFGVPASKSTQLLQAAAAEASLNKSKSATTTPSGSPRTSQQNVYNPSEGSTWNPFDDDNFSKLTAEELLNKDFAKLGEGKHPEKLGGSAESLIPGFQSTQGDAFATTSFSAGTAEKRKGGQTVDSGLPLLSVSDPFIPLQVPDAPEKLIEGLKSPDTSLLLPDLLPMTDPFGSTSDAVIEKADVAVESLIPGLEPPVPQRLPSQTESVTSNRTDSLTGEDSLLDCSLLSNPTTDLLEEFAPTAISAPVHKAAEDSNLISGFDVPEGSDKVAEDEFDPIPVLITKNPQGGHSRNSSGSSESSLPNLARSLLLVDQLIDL
T1 sequence (O00506 whole entry): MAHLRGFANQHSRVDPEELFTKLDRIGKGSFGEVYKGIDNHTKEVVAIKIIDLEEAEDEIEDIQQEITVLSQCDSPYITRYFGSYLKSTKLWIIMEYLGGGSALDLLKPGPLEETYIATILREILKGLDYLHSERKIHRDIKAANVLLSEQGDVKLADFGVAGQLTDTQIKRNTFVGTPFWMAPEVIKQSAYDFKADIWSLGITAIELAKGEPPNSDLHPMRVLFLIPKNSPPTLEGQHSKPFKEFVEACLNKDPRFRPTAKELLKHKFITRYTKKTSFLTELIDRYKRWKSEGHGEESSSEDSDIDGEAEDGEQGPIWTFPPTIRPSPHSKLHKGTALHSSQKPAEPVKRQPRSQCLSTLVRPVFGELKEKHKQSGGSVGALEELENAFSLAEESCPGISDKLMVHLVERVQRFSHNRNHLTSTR
T3 sequence (P48729 whole entry): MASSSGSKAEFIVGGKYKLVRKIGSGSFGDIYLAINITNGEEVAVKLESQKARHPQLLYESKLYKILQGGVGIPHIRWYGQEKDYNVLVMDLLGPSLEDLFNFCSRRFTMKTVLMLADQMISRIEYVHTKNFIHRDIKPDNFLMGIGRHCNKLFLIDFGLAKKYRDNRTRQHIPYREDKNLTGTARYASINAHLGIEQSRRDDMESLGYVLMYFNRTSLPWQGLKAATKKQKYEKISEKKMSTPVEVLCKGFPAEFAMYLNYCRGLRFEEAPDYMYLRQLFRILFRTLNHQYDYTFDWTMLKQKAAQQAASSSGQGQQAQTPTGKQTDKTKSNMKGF

CCNc1nc(Nc2ccc(C(=O)N3CCC(N4CCOCC4)CC3)cc2OC)nc2[nH]cc(C(F)(F)F)c12 [Example 104, (4-((4-(ethylamino)-5-(trifluoromethyl)-7H-pyrrolo[2,3-d]pyrimidine-2-yl)amino)-3-methoxyphenyl)(4-morpholinopiperidine-1-yl)methanone]
remaining binding at 1 µM [1]: 81% | remaining binding at 1 µM [2]: 91% | remaining binding at 1 µM [3]: 56% | remaining binding at 1 µM [4]: 100% | remaining binding at 1 µM [5]: 90% | remaining binding at 1 µM [6]: 49%

CNc1nc(Nc2ccc(C(=O)N3CCOCC3)cc2OC)nc2[nH]cc(C#N)c12 [Example 1, 2-((2-methoxy-4-(morpholine-4-carbonyl)phenyl)amino)-4-(methylamino)-7H-pyrrolo[2,3-d]pyrimidine-5-carbonitrile]
remaining binding at 1 µM [1]: 97% | remaining binding at 1 µM [2]: 99% | remaining binding at 1 µM [3]: 19% | remaining binding at 1 µM [4]: 100% | remaining binding at 1 µM [5]: 78% | remaining binding at 1 µM [6]: 37%

CC1(Nc2nc(Nc3cnn([C@H]4CCN(C5COC5)C[C@@H]4F)c3Cl)nc3[nH]cc(C#N)c23)CC1 [Example 52, 2-((5-chloro-1-((3S,4S)-3-fluoro-1-(oxetane-3-yl)piperidine-4-yl)-1H-pyrazole-4-yl)amino)((1-methylcyclopropyl)amino)-7H-pyrrolo[2,3-d]pyrimidine-5-carbonitrile]
remaining binding at 1 µM [1]: 28% | remaining binding at 1 µM [2]: 70% | remaining binding at 1 µM [3]: 1.6% | remaining binding at 1 µM [4]: 100% | remaining binding at 1 µM [5]: 9.6% | remaining binding at 1 µM [6]: 0.3%
